Measurements reported in the supplement of paper PMC10307832.

Legend:
Assay in all cases: relative viability (nuclei count vs DMSO), 5 days (fraction); higher = more cells survive
NCI-H596 = test system: NCI-H596
Procedure, shortened: (§1)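 After 5 days of treatment, lung cancer cells in 1536-well plates were fixed and stained in a single step (final 0.05% Triton X-100, 1% formaldehyde, 1 ug/ml Hoechst) and their nuclei counted on 4× images. Treatment had been applied by pin tool the day after seeding as one drug alone or as a fixed anchor-drug dose with five library-drug doses (not always all listed) in √10 steps. Relative viability is the nuclei count of treated wells divided by that of vehicle wells, and values are medians of duplicate plates.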

HCC-78 = test system: HCC-78
Procedure, shortened: as §1

NCI-H1944 = test system: NCI-H1944
Procedure, shortened: as §1

NCI-H1793 = test system: NCI-H1793
Procedure, shortened: as §1

NCI-H3122 = test system: NCI-H3122
Procedure, shortened: as §1

NCI-H2126 = test system: NCI-H2126
Procedure, shortened: as §1

LCLC-97TM1 = test system: LCLC-97TM1
Procedure, shortened: as §1

HOP-62 = test system: HOP-62
Procedure, shortened: as §1

COR-L23 = test system: COR-L23
Procedure, shortened: as §1

NCI-H1395 = test system: NCI-H1395
Procedure, shortened: as §1

NCI-H661 = test system: NCI-H661
Procedure, shortened: as §1

NCI-H1666 = test system: NCI-H1666
Procedure, shortened: as §1

PC-14 = test system: PC-14
Procedure, shortened: as §1

LXF-289 = test system: LXF-289
Procedure, shortened: as §1

NCI-H2085 = test system: NCI-H2085
Procedure, shortened: as §1

NCI-H1650 = test system: NCI-H1650
Procedure, shortened: as §1

HARA = test system: HARA
Procedure, shortened: as §1

EPLC-272H = test system: EPLC-272H
Procedure, shortened: as §1

NCI-H1437 = test system: NCI-H1437
Procedure, shortened: as §1

H3255 = test system: H3255
Procedure, shortened: as §1

NCI-H2087 = test system: NCI-H2087
Procedure, shortened: as §1

## CCNC(=O)c1noc(-c2cc(C(C)C)c(O)cc2O)c1-c1ccc(CN2CCOCC2)cc1 [Luminespib] + CS(=O)(=O)CCNCc1ccc(-c2ccc3ncnc(Nc4ccc(OCc5cccc(F)c5)c(Cl)c4)c3c2)o1 [Lapatinib] (partner 2 µM)
NCI-H596; first compound 0.002 µM
  relative viability: 1.18
NCI-H596; first compound 0.006325 µM
  relative viability: 0.99
NCI-H596; first compound 0.06325 µM
  relative viability: 0.933
NCI-H596; first compound 0.2 µM
  relative viability: 0.969
HCC-78; first compound 0.002 µM
  relative viability: 0.572
HCC-78; first compound 0.06325 µM
  relative viability: 1.32
HCC-78; first compound 0.2 µM
  relative viability: 1.27
NCI-H1944; first compound 0.002 µM
  relative viability: 0.869
NCI-H1944; first compound 0.006325 µM
  relative viability: 0.724
NCI-H1944; first compound 0.02 µM
  relative viability: 0.445
NCI-H1944; first compound 0.06325 µM
  relative viability: 0.41
NCI-H1944; first compound 0.2 µM
  relative viability: 0.407
NCI-H1793; first compound 0.002 µM
  relative viability: 0.697
NCI-H1793; first compound 0.006325 µM
  relative viability: 0.832
NCI-H1793; first compound 0.02 µM
  relative viability: 0.223
NCI-H1793; first compound 0.06325 µM
  relative viability: 0.167
NCI-H1793; first compound 0.2 µM
  relative viability: 0.177
NCI-H3122; first compound 0.002 µM
  relative viability: 1.09
NCI-H3122; first compound 0.006325 µM
  relative viability: 0.951
NCI-H3122; first compound 0.02 µM
  relative viability: 1.02
NCI-H3122; first compound 0.06325 µM
  relative viability: 0.24
NCI-H3122; first compound 0.2 µM
  relative viability: 0.168
NCI-H2126; first compound 0.002 µM
  relative viability: 0.798
NCI-H2126; first compound 0.006325 µM
  relative viability: 0.776
NCI-H2126; first compound 0.02 µM
  relative viability: 0.582
NCI-H2126; first compound 0.06325 µM
  relative viability: 0.647
NCI-H2126; first compound 0.2 µM
  relative viability: 0.526
LCLC-97TM1; first compound 0.002 µM
  relative viability: 1.33
LCLC-97TM1; first compound 0.006325 µM
  relative viability: 0.759
LCLC-97TM1; first compound 0.02 µM
  relative viability: 0.318
LCLC-97TM1; first compound 0.06325 µM
  relative viability: 0.197
LCLC-97TM1; first compound 0.2 µM
  relative viability: 0.139
HOP-62; first compound 0.002 µM
  relative viability: 1.13
HOP-62; first compound 0.006325 µM
  relative viability: 1.08
HOP-62; first compound 0.02 µM
  relative viability: 0.695
HOP-62; first compound 0.06325 µM
  relative viability: 0.762
HOP-62; first compound 0.2 µM
  relative viability: 0.0994
COR-L23; first compound 0.002 µM
  relative viability: 1.22
COR-L23; first compound 0.006325 µM
  relative viability: 0.945
COR-L23; first compound 0.02 µM
  relative viability: 0.924
COR-L23; first compound 0.06325 µM
  relative viability: 0.0749
COR-L23; first compound 0.2 µM
  relative viability: 0.0671
NCI-H1395; first compound 0.002 µM
  relative viability: 1.04
NCI-H1395; first compound 0.006325 µM
  relative viability: 0.996
NCI-H1395; first compound 0.02 µM
  relative viability: 0.645
NCI-H1395; first compound 0.06325 µM
  relative viability: 0.336
NCI-H1395; first compound 0.2 µM
  relative viability: 0.347
NCI-H661; first compound 0.002 µM
  relative viability: 0.469
NCI-H661; first compound 0.006325 µM
  relative viability: 0.464
NCI-H661; first compound 0.02 µM
  relative viability: 0.35
NCI-H661; first compound 0.06325 µM
  relative viability: 0.324
NCI-H661; first compound 0.2 µM
  relative viability: 0.208
NCI-H1666; first compound 0.002 µM
  relative viability: 0.717
NCI-H1666; first compound 0.006325 µM
  relative viability: 0.709
NCI-H1666; first compound 0.02 µM
  relative viability: 0.585
NCI-H1666; first compound 0.06325 µM
  relative viability: 0.718
NCI-H1666; first compound 0.2 µM
  relative viability: 0.533
PC-14; first compound 0.002 µM
  relative viability: 0.383
PC-14; first compound 0.006325 µM
  relative viability: 0.267
PC-14; first compound 0.02 µM
  relative viability: 0.247
PC-14; first compound 0.06325 µM
  relative viability: 0.138
PC-14; first compound 0.2 µM
  relative viability: 0.116
LXF-289; first compound 0.002 µM
  relative viability: 0.905
LXF-289; first compound 0.006325 µM
  relative viability: 0.877
LXF-289; first compound 0.02 µM
  relative viability: 1.02
LXF-289; first compound 0.06325 µM
  relative viability: 0.554
LXF-289; first compound 0.2 µM
  relative viability: 0.115
NCI-H2085; first compound 0.002 µM
  relative viability: 0.854
NCI-H2085; first compound 0.006325 µM
  relative viability: 0.793
NCI-H2085; first compound 0.02 µM
  relative viability: 0.482
NCI-H2085; first compound 0.06325 µM
  relative viability: 0.373
NCI-H2085; first compound 0.2 µM
  relative viability: 0.284
NCI-H1650; first compound 0.002 µM
  relative viability: 0.761
NCI-H1650; first compound 0.006325 µM
  relative viability: 0.642
NCI-H1650; first compound 0.02 µM
  relative viability: 0.177
NCI-H1650; first compound 0.06325 µM
  relative viability: 0.145
NCI-H1650; first compound 0.2 µM
  relative viability: 0.176
HARA; first compound 0.002 µM
  relative viability: 0.704
HARA; first compound 0.006325 µM
  relative viability: 0.709
HARA; first compound 0.02 µM
  relative viability: 0.465
HARA; first compound 0.06325 µM
  relative viability: 0.335
HARA; first compound 0.2 µM
  relative viability: 0.259
EPLC-272H; first compound 0.006325 µM
  relative viability: 0.861
EPLC-272H; first compound 0.02 µM
  relative viability: 0.563
EPLC-272H; first compound 0.06325 µM
  relative viability: 0.725
EPLC-272H; first compound 0.2 µM
  relative viability: 0.153
NCI-H1437; first compound 0.002 µM
  relative viability: 0.819
NCI-H1437; first compound 0.006325 µM
  relative viability: 0.748
NCI-H1437; first compound 0.02 µM
  relative viability: 0.703
NCI-H1437; first compound 0.06325 µM
  relative viability: 0.243
NCI-H1437; first compound 0.2 µM
  relative viability: 0.102
H3255; first compound 0.002 µM
  relative viability: 0.245
H3255; first compound 0.006325 µM
  relative viability: 0.305
H3255; first compound 0.02 µM
  relative viability: 0.234
H3255; first compound 0.06325 µM
  relative viability: 0.233
H3255; first compound 0.2 µM
  relative viability: 0.25
NCI-H2087; first compound 0.002 µM
  relative viability: 1.11
NCI-H2087; first compound 0.006325 µM
  relative viability: 0.954
NCI-H2087; first compound 0.02 µM
  relative viability: 0.726
NCI-H2087; first compound 0.06325 µM
  relative viability: 0.202
NCI-H2087; first compound 0.2 µM
  relative viability: 0.174
